Here are results for two compounds from article PMC7719179, “Small molecule inhibition of Dynamin-dependent endocytosis targets multiple niche signals and impairs leukemia stem cells” (Nature Communications, 2020).

Several values for one entry are separate records, joined by “and”; a condition that tells them apart may be missing. Identical values can stand only once.

Series [1] relates to normal murine hematopoietic stem and progenitor cells (HSPCs).
Procedure: Bone marrow cells collected from 2-month-old WT mice or CD34-positive (CD34+) stem and progenitor bone marrow cells from healthy donors were seeded at a density of 5 × 10^4 cells per 35 mm dish in semi-solid agar for GM colony growth, as previously described[92]. Cultures were incubated at 37 °C in 10% CO2 for 10 days in presence of 10 μg/mL rhIL-3 (#200-03, Pepro Tech), 25 μg/mL rhSCF (#300-07, Pepro Tech), 25 μg/mL rhFLT3-L (#300-19, Pepro Tech), rhIL-6 (#200-06, Pepro Tech), 500 nM StemRegenin 1 (SR1; #1227633-49-9, Stem Cell Technologies) and 35 nM UM-171 (#72914, Stem Cell Technologies)[93],[94], then stained with acetyl-cholinesterase and counted for the number of colonies.
In series [2] the test system is IL-7R at the surface of Ba/F3-IL7R cells. In words: Surface expression of IL-7R on Ba/F3-IL7R cells (flow cytometry). It counts as cell-based, murine. The settings on record: replicates. As for the experimental part: Ba/F3 cells (kindly provided by a person from The Walter and Eliza Hall Institute of Medical Research) were infected with pMIG-R1/Il7r retroviral supernatants produced in 293T cells, and transduced cells were sorted with a BD Influx (BD Australia) and selected by culture in medium supplemented with 5 ng/mL rmIL-7 (#217-17, Pepro Tech, Rocky Hill NJ, USA) for 7 days. Ba/F3 cells stably expressing Il7r (Ba/F3-IL7R) were infected with TxTCPVIR-Stat5-CA retroviral supernatants produced in 293T. Cell sorting was performed with a BD Influx and transduced cells were treated with doxycycline for 48 h to induce the expression of the Stat5-CA-T2A-mCherry fusion protein.
Flow cytometry analyses were performed as previously described[10],[86] on single-cell suspensions stained using BD Pharmingen antibodies (BD Australia, North Ryde NSW, Australia) against mouse CD4 (RM4-5), CD8 (53-6.7), CD25 (PC61.5), CD44 (IM7), CD45.1 (A20), CD45.2 (104), Thy1.2 (53-2.1; #561616), TCRβ (H57-597), CD117 (ACK45), CD135 (A2F10.1), CD150 (TC15-12F12.2; #562373), B220 (RA3-6B2; #563708), CD3 (145-2C11; #563004), CD19 (ID3; #557655), Gr-1 (RB6-8C5; #563299 and #565033), CD11b (M1/70; #563015 and #560455), Ter119 (Ter119; #565523 and #557909), Sca-1 (D7; #558160) and an eBioscience antibody (eBioscience, Invitrogen) against mouse NOTCH1 (22E5). DN3 populations and IL-7R were stained using BioLegend antibodies (Australian Biosearch, Balcatta WA, Australia) against mouse CD28 (E18) and CD127 (A7R34), respectively. Apoptosis was measured using an antibody against AnnexinV (#556420, BD Australia) and the […] Sytox Blue (BD Australia) following the manufacturer’s protocol.
For in vitro IL-7 stimulation assays, cells were starved in serum-free DMEM at 37 °C, then incubated with either vehicle or Dynole 34-2 or Ruxolitinib (INCB018424; #S1378, Selleckchem), or DAPT (GSI-IX; #S2215, Selleckchem) resuspended in DMSO for 1 h. Thymocytes were subsequently stimulated with 25 ng/mL IL-7 at 37 °C for 20 min and washed twice using cold PBS 1×. Cells were incubated with 25 ng/mL Rat IgG (Sigma-Aldrich Pty Ltd, Castle Hill NSW, Australia) and with a PE-conjugated antibody for detection of IL-7R (CD127) for 1 h on ice, as described in the FACS analysis section. PE-conjugated isotype was used as negative control. Cells were washed twice, fixed and phosphoflow analysis performed as described in the FACS analysis section. The analysis was performed in triplicate and the mean fluorescence intensity (MFI) observed without stimulation was reported as 100%.

The test system of the next series is hematopoietic stem cells. Put plainly: Competitive transplant with bone marrow cells from treated WT mice (HSC activity). It counts as in vivo. The procedure: induction-like therapy (VXL) or combination therapy was administered. Mean ± SEM, 2-way ANOVA […]
murine B (CD19+ B220+), T (CD3+) and Myeloid (Gr-1 + CD11b+ granulocytes and monocytes) cells (c ), as well as Lineage-negative Kit-positive (Lin -Kit+, LK) progenitors, different populations of multipotent progenitors (MPP) and hematopoietic stem cells (HSC; d) from the bone marrow of WT […]
administered. Vehicle was used as control. e, Experimental schematic of competitive transplant […]
harvested from isogenic Cd45.1+ mice. These cells were injected into lethally -irradiated recipients, and lineage reconstitution was monitored every 4 weeks, until 20 weeks post-transplantation when BM was harvested for analysis. f, Percent of donor -derived (Cd45.2 +) cells among all peripheral blood cells at 4, 8, 12, 16 and 20 weeks post- transplant. g-h , Absolute numbers of donor-derived (Cd45.2+) lineage-committed (B, and Myeloid) cells ( g), as well as LK, MPP populations and HSCs (h ) harvested from the BM of recipients at 20 weeks post- transplant. Mean ± SEM, 2-way ANOV A with Tukey’s correction test; *P<0.05, *** P<0.001 compared to vehicle; #P<0.05, ##P<0.01, ###P<0.001 compared to VXL. ns = not statistically significant.

In series [3] the test system is normal human CD34-positive HSPCs. Put plainly: Clonogenic assay of human CD34-positive HSPCs from healthy donors, 10 days (LC50). It counts as cell-based. Also on record: Relative number of colonies (% DMSO): unit of the concentration uncertain.
Procedure: Cultures were incubated at 37 °C in 10% CO2 for 10 days in presence of 10 μg/mL rhIL-3 (#200-03, Pepro Tech), 25 μg/mL rhSCF (#300-07, Pepro Tech), 25 μg/mL rhFLT3-L (#300-19, Pepro Tech), rhIL-6 (#200-06, Pepro Tech), 500 nM StemRegenin 1 (SR1; #1227633-49-9, Stem Cell Technologies) and 35 nM UM-171 (#72914, Stem Cell Technologies)[93],[94], then stained with acetyl-cholinesterase and counted for the number of colonies.

For `N#CC[C@H](C1CCCC1)n1cc(-c2ncnc3[nH]ccc23)cn1` [Ruxolitinib], the “growth of normal hematopoietic stem and progenitor cells (HSPCs), clonogenic assay” value in series [1] is reported as “significantly impaired”.
With `CCCCCCCCNC(=O)C(C#N)=Cc1cn(CCCN(C)C)c2ccccc12` [Dynole 34-2, 2-Cyano-N-octyl-3-(1-(3-dimethylaminopropyl)-1H-indol-3-yl)-acrylamide], the “IL-7R (MFI)” value is 6459 MFI and 6071 MFI and 5354 MFI and 5835 MFI and 6042 MFI and 5962 MFI in series [2] (+IL-7, Dynole 34-2 0.2 µM); 6945 MFI and 7094 MFI and 7005 MFI and 6255 MFI and 6778 MFI and 5501 MFI in series [2] (+IL-7, Dynole 34-2 1.0 µM); 8484 MFI and 8092 MFI and 6662 MFI and 7158 MFI and 8274 MFI and 7535 MFI in series [2] (+IL-7, Dynole 34-2 5.0 µM); 7753 MFI and 8175 MFI and 8231 MFI and 7570 MFI in series [2] (+IL-7, Dynole 34-2 10.0 µM); 9215 MFI and 8603 MFI and 7481 MFI and 8221 MFI and 8215 MFI and 7582 MFI in series [2] (+IL-7, Dynole 34-2 25.0 µM). For the same compound, the “Absolute numbers of Cd45.2+ cells in the bone marrow: B cells” value in the series with hematopoietic stem cells (Supplementary Figure 5g-h) was 3150000 and 4270000 and 3310000 and 4360000. The “Absolute numbers of Cd45.2+ cells in the bone marrow: LK” value in the series with hematopoietic stem cells (Supplementary Figure 5g-h) is 231000 and 185000 and 205000 and 163000 and 160000. For the same compound, in the series on hematopoietic stem cells (Supplementary Figure 5g-h), the “Absolute numbers of Cd45.2+ cells in the bone marrow: Myeloid cells” value was 955000 and 1600000 and 1200000 and 1410000 and 1720000. For the same compound, the “Absolute numbers of Cd45.2+ cells in the bone marrow: T cells” value with hematopoietic stem cells (Supplementary Figure 5g-h) is 471000 and 332000 and 364000 and 374000 and 460000. The “effect on HSC fitness and differentiation potential” value with hematopoietic stem cells (competitive transplant of bone marrow from treated mice, result in words) was “no detrimental effect on HSC fitness and differentiation potential”. Besides, the “Proportion of CD45.2+ (%) in peripheral blood” value with hematopoietic stem cells (week 4) is 40.53% and 37.56% and 37.9% and 34.3% and 35.3%; with hematopoietic stem cells (week 8) it was 36.97% and 46.65% and 45.78% and 44.9% and 43.63%; with hematopoietic stem cells (week 12) it was 46.54% and 48.81% and 42.82% and 42.23% and 46.32%; in the series with hematopoietic stem cells (week 16) it was 42.09% and 57% and 54.04% and 43.93% and 53.26%; with hematopoietic stem cells (week 20), 50.7% and 47.2% and 59.8% and 59.3% and 53.24%. For the same compound, the “Relative number of colonies (% DMSO)” value in series [3] (CD34_1003, dose 0.04 (unit uncertain)) was 99.5 % DMSO and 94.6 % DMSO; in series [3] (CD34_1003, dose 0.2 (unit uncertain)), 88.8 % DMSO and 76.1 % DMSO; in series [3] (CD34_1003, dose 1 (unit uncertain)) it was 82.9 % DMSO and 71.2 % DMSO; in series [3] (CD34_1003, dose 5 (unit uncertain)) it was 48.8 % DMSO and 56.6 % DMSO; in series [3] (CD34_1003, dose 25 (unit uncertain)), 0.0 % DMSO; in series [3] (CD34_1602, dose 0.04 (unit uncertain)), 116.1 % DMSO and 109.5 % DMSO. Further, the “Relative number of colonies (% DMSO)” value in series [3] (CD34_1602, dose 0.2 (unit uncertain)) was 118.9 % DMSO and 100.0 % DMSO; in series [3] (CD34_1602, dose 1 (unit uncertain)) it was 106.3 % DMSO and 87.8 % DMSO; in series [3] (CD34_1602, dose 5 (unit uncertain)) it was 89.5 % DMSO and 73.0 % DMSO; in series [3] (CD34_1602, dose 25 (unit uncertain)), 0.0 % DMSO; in series [3] (CD34_2104, dose 0.04 (unit uncertain)) it was 102.6 % DMSO; in series [3] (CD34_2104, dose 0.2 (unit uncertain)), 104.6 % DMSO and 97.4 % DMSO. Also, the “Relative number of colonies (% DMSO)” value in series [3] (CD34_2104, dose 1 (unit uncertain)) is 68.7 % DMSO and 76.9 % DMSO; in series [3] (CD34_2104, dose 25 (unit uncertain)), 0.0 % DMSO.
